Results published in article PMC5955586, “Transport of enniatin B and enniatin B1 across the blood-brain barrier and hints for neurotoxic effects in cerebral cells” (PLoS ONE, 2018).

Experiments:
[1] = system: PBCEC monolayer; assay: Transfer across PBCEC monolayer on Transwell filters (BBB model); type: in vitro ADME, porcine
[2] = system: HT-29; set-up: method as in PMID 21640785; conditions: HT-29, 48 h; cited from earlier work
[3] = set-up: method as in PMID 24239892; conditions: pigs, cited from earlier work
[4] = set-up: method as in PMID 21622627; conditions: liver microsomes human, dog and rat; cited from earlier work
[5] = set-up: method as in PMID 25757886; conditions: ex vivo human skin; cited from earlier work

| Compound | metabolites by high resolution mass spectrometry screening [1] | IC50 [2] [µM] | Tmax ([3]; oral) [min] | ka ([3]; oral) [h⁻¹] | oral bioavailability [3] | metabolites formed [4] | permeation kp,v [5] [×10⁻⁶ cm/s] |
| --- | --- | --- | --- | --- | --- | --- | --- |
| CC[C@H](C)[C@H]1C(=O)O[C@H](C(C)C)C(=O)N(C)[C@@H](C(C)C)C(=O)O[C@H](C(C)C)C(=O)N(C)[C@@H](C(C)C)C(=O)O[C@H](C(C)C)C(=O)N1C [ENN B1, enniatin B1] | no metabolites were detected | 3.7 | 14.4 | 4.66 | up to 91% | – | – |
| CC(C)[C@H]1C(=O)O[C@H](C(C)C)C(=O)N(C)[C@@H](C(C)C)C(=O)O[C@H](C(C)C)C(=O)N(C)[C@@H](C(C)C)C(=O)O[C@H](C(C)C)C(=O)N1C [ENN B, enniatin B] | – | 2.8 | – | – | – | several phase I metabolites | 0.00262 |
